Measured values taken from PubChem BioAssay (NCI).
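Growth conditions: 96-well plates. Treatment: test compound, 48 hours, 5 concentrations. Analysis: linear interpolation between bracketing concentrations; unreached endpoints set to highest concentration. GI50 is the concentration that inhibits growth by half. TGI: total growth inhibition.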

Tests used:
Experiment in all cases: inhibition of tumour cell growth, NCI panel, 48 h
NCI/ADR-RES ovarian = tested on: NCI/ADR-RES ovarian
UACC-257 melanoma = tested on: UACC-257 melanoma
MCF7 breast = tested on: MCF7 breast
A498 renal = tested on: A498 renal
TK-10 renal = tested on: TK-10 renal
CAKI-1 renal = tested on: CAKI-1 renal
OVCAR-5 ovarian = tested on: OVCAR-5 ovarian
MDA-MB-231 breast = tested on: MDA-MB-231 breast
SK-OV-3 ovarian = tested on: SK-OV-3 ovarian
SN12C renal = tested on: SN12C renal
HS 578T breast = tested on: HS 578T breast
T-47D breast = tested on: T-47D breast
ACHN renal = tested on: ACHN renal
DU-145 prostate = tested on: DU-145 prostate
SF-539 CNS = tested on: SF-539 CNS
HL-60(TB) leukemia = tested on: HL-60(TB) leukemia
SK-MEL-28 melanoma = tested on: SK-MEL-28 melanoma
KM12 colon = tested on: KM12 colon
COLO 205 colon = tested on: COLO 205 colon
NCI-H226 lung = tested on: NCI-H226 lung
OVCAR-4 ovarian = tested on: OVCAR-4 ovarian
MDA-MB-435 = tested on: MDA-MB-435
UACC-62 melanoma = tested on: UACC-62 melanoma
SK-MEL-2 melanoma = tested on: SK-MEL-2 melanoma
SNB-75 CNS = tested on: SNB-75 CNS

Cc1ccc(NC(=O)c2ccc(CN3CCN(C)CC3)c(I)c2)cc1Oc1ccc(-c2[nH]nc3ncnc(N)c23)cc1
GI50 (NCI/ADR-RES ovarian): 3.93 µM | TGI (NCI/ADR-RES ovarian): 40.7 µM | GI50 (UACC-257 melanoma): 2.03 µM | TGI (UACC-257 melanoma): 4.59 µM | GI50 (MCF7 breast): 1.35 µM | TGI (MCF7 breast): 2.94 µM | GI50 (A498 renal): 18.8 µM | TGI (A498 renal): 38.3 µM | GI50 (TK-10 renal): 5.33 µM | TGI (TK-10 renal): 28 µM | GI50 (CAKI-1 renal): 12 µM | TGI (CAKI-1 renal): 28.1 µM | GI50 (OVCAR-5 ovarian): 1.94 µM | TGI (OVCAR-5 ovarian): 3.52 µM | GI50 (MDA-MB-231 breast): 1.85 µM | TGI (MDA-MB-231 breast): 3.47 µM | GI50 (SK-OV-3 ovarian): 26.2 µM | TGI (SK-OV-3 ovarian): 63.9 µM | GI50 (SN12C renal): 12.1 µM | TGI (SN12C renal): 33.8 µM | GI50 (HS 578T breast): 1.77 µM | TGI (HS 578T breast): 5.09 µM | GI50 (T-47D breast): 2.72 µM | TGI (T-47D breast): > 100 µM | GI50 (ACHN renal): 1.8 µM | TGI (ACHN renal): 3.33 µM | GI50 (DU-145 prostate): 1.88 µM | TGI (DU-145 prostate): 3.45 µM | GI50 (SF-539 CNS): 1.26 µM | TGI (SF-539 CNS): 2.68 µM | GI50 (HL-60(TB) leukemia): 4.42 µM | TGI (HL-60(TB) leukemia): > 100 µM | GI50 (SK-MEL-28 melanoma): 1.63 µM | TGI (SK-MEL-28 melanoma): 3.12 µM | GI50 (KM12 colon): 1.79 µM | TGI (KM12 colon): 3.59 µM | GI50 (COLO 205 colon): 1.73 µM | TGI (COLO 205 colon): 5.08 µM | GI50 (NCI-H226 lung): 23.2 µM | TGI (NCI-H226 lung): 84.9 µM | GI50 (OVCAR-4 ovarian): 18 µM | TGI (OVCAR-4 ovarian): 40.7 µM | GI50 (MDA-MB-435): 1.58 µM | TGI (MDA-MB-435): 3.01 µM | GI50 (UACC-62 melanoma): 1.73 µM | TGI (UACC-62 melanoma): 3.35 µM | GI50 (SK-MEL-2 melanoma): 24.7 µM | TGI (SK-MEL-2 melanoma): 80.1 µM | GI50 (SNB-75 CNS): 0.458 µM | TGI (SNB-75 CNS): 20.8 µM
